# Test results as given in paper PMC9377006, “Discovery of Desmuramylpeptide NOD2 Agonists with Single-Digit Nanomolar Potency” (ACS Medicinal Chemistry Letters, 2022).
# What was measured:
# human NOD2 = molecular target: T1, human NOD2 (Homo sapiens, UniProt Q9HC29); assay: HEK-Blue NOD2 NF-κB SEAP reporter assay (NOD2 agonistic activity); format: cell-based
# T1 construct: host or cells: HEK-Blue NOD2 cells (derived from HEK293)
# Protocol: The synthesized desmuramylpeptides were evaluated for their dose-dependent NOD2 activity using the commercially available HEK-Blue NOD2 reporter cell line. This cell line is derived from HEK293 cells by cotransfection of human NOD2 and an NF-κB-inducible secreted embryonic alkaline phosphatase (SEAP). Activation of NOD2 and subsequently of NF-κB leads to the expression and secretion of SEAP, the level of which can be quantified colorimetrically. […]
# two passages, 200 µg/mL Zeocin (Invivogen) was added to the medium every other passage to maintain selection pressure. The cells were incubated in a humidified atmosphere at 37 °C and 5% CO 2. […]
# Aldrich), and 100 µg/mL streptomycin (Sigma -Aldrich).
# The tested compounds were dissolved in DMSO and further di luted in culture medium to the desired final concentrations, such that the final DMSO concentration never exceeded 0.1%. […]
# 4.6 NOD1/NOD2-NF-kB reporter assay
# HEK-Blue NOD2 or NOD1 cells were seeded (25,000 cells/well) in 96 -well plates in 100 µL HEK-Blue detection medium (Invivogen, San Diego, CA, USA) and treated with compounds ( 2 µM for fixed […]
# the corresponding vehicle (0.1% DMSO). After 18 h of incubation (37 °C, 5% CO2), secreted embryonic alkaline phosphatase (SEAP) activity was determined spectrophotometrically as absorbance at 630 nm (BioTek Synergy microplate reader; Winooski, VT, USA). EC50 values were calculated using Prism software (version 9; GraphPad Software, CA, USA). The experiments were run in duplicates and repeated as at least three independent biological replicates. […]
# K562 cancer cells = assay: PBMC cytotoxicity against K562 cancer cells; format: cell-based
# Protocol: In addition, we also investigated the ability of 40, both alone and in combination with LPS and IFN-γ, to induce direct and nonspecific cytolytic activity of PBMCs against cancer cells. For this purpose, we used a functional cytotoxicity assay based on the coincubation of preactivated PBMCs and fluorescently labeled K562 cancer cells.[33] Among the heterogeneous subpopulations of PBMCs, natural killer (NK) cells and, to a lesser extent, monocytes represent the main effector cell types in this assay. NK cells play an essential role in tumor and viral immunosurveillance, both through direct cytolytic destruction of aberrant cells and by facilitating the recruitment and activation of other immune cells through the secretion of cytokines.[34] In addition to their well-established role in cancer immunotherapy, NK cells thus also provide an attractive target in the development of vaccine adjuvants, particularly when Th1 cellular immune responses are preferred.[35] Other cell populations, however, may contribute to the magnitude of NK cell-mediated responses via cytokine secretion. To account for the contribution of these accessory cells and to more accurately represent in vivo conditions, the entire PBMC population was used instead of isolated NK cells.
# Figure 3 2 and 40 synergize with LPS and IFN-γ to induce the cytotoxicity of PBMCs against K562 cancer cells. Following 18 h of stimulation of PBMCs with 2 (1 μM) or 40 (1 μM) in the presence or absence of LPS (1 μg/mL) and IFN-γ (200 U/mL) or the corresponding vehicle (0.1% DMSO; NT), K562 cells were added in a 40:1 effector to target cell ratio. Cytotoxicity was determined after 4 h of coincubation. IL-2 (200 U/mL) was used as the positive control. Data are shown as relative activities to vehicle-treated control (0.1% DMSO) and are the means ± SEMs of duplicates of two independent experiments. Statistical significance was determined by one-way ANOVA followed by Dunnet’s multiple-comparisons test; **, p < 0.01, ***, p < 0.001. […]
# 4.8 Peripheral blood mononuclear cell cytotoxicity
# The PBMC cytotoxicity assays using K562 cells were performed as described previously, with some modifications.2 PBMCs were seeded (400,000 cells/well) in duplicates in 96 -well U-bottom plates and treated with 2 (1 µM) or 40 (1 µM), in the presence or absence of LPS (1 µg/mL) or IFN-γ (200 U/mL), IL-2 (200 U/mL), or the corresponding vehicle (0.1% DMSO) for 18 h. K562 were stained with carboxyfluorescein succinimidyl ester (CFSE, Invitrogen, Carlsbad, CA, USA), washed twice with complete medium, and added (10,000 cells/well) to the pre-treated PBMCs for a final effector cell to target tumor cell ratio of 40:1. After a 4 h coincubation (37 °C, 5% CO2), cells were stained with Sytox Blue dead cell stain (Invitrogen) and analyzed using an Attune NxT flow cytometer (Thermo Fisher Scientific, Waltham, MA, USA) and FlowJo software (Tree Star, Inc., Ashland, OR, USA). Cells that were positive for both CFSE and Sytox Blue were defined as dead K562 cells. PBMCs alone and CFSE-labeled K562 cells alone were also treated with the compounds at the same concentrations and stained with Sytox Blue to exclude any direct cytotoxicity of the compounds towards the PBMCs and cancer cells.
# 4.9 Cytokine release from peripheral blood mononuclear cells […]
# T1 sequence (Q9HC29 whole entry): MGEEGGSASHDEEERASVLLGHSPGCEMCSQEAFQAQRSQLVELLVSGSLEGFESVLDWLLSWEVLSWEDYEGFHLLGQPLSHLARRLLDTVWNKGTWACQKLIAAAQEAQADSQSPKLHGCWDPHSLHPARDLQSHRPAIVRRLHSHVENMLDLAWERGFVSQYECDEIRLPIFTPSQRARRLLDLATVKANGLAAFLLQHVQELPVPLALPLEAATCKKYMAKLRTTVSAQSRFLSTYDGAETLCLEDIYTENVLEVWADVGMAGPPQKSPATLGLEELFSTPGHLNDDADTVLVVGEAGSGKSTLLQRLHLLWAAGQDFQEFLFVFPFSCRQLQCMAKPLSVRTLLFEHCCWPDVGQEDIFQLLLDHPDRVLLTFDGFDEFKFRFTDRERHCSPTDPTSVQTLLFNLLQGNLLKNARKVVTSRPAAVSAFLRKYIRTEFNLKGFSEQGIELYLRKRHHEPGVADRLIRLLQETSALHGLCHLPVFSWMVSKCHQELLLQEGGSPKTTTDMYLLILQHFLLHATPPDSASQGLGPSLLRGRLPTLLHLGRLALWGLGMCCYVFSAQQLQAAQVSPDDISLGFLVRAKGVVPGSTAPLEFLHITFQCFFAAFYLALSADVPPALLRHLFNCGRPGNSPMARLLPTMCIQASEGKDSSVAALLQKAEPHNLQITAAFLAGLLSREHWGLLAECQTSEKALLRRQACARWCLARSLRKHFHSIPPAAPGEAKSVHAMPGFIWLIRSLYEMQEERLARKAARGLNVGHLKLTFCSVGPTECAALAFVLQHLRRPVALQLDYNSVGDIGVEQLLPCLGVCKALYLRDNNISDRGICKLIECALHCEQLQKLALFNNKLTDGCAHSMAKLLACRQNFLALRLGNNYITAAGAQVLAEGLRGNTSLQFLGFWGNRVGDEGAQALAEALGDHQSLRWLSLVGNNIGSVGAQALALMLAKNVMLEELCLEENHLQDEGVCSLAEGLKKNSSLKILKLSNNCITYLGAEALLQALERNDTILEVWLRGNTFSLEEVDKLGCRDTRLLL
compound,measurement,setting,value
CCOC(=O)CC[C@@H](NC(=O)[C@@H](NC(=O)CNC(=O)/C=C/c1ccc(OC(=O)CC23CC4CC(CC(C4)C2)C3)c(OC)c1)C(C)C)C(=O)OCC [Compound 40],EC50,"human NOD2; HEK-Blue NOD2 cells, 18 h, means ± SEMs of at least three independent experiments, 8 or 16 concentrations (0.1 nM to 20 μM)",4.5 ± 1.1 nM
same,improvement of activity relative to 1,human NOD2; NOD2 EC50 versus compound 1,20 factor
same,"LPS- and IFN-γ-induced cytotoxic activity of PBMCs against K562, costimulation","K562 cancer cells; 1 μM + LPS 1 μg/mL or IFN-γ 200 U/mL, 18 h, 40:1, 4 h",significantly enhanced
same,"cytotoxic activity of PBMCs with costimuli, compared to 2",K562 cancer cells; 1 μM + LPS or IFN-γ,slightly stronger activity
same,increase in the ratio of dead K562 cells,"K562 cancer cells; PBMCs stimulated 18 h with 1 μM compound alone, 40:1 effector to target ratio, 4 h coincubation, relative to vehicle",1.28 fold
same,apoptosis in K562 cells in the absence of PBMCs,"K562 cancer cells; cotreatment with 40 and IFN-γ, data not shown",did not induce apoptosis
